Assay results taken from patent publication US20010000783A1, “Treatment of interstitial cystitis” (priority 1998, published 2001).

Test system: Normal human bladder epithelial cells
Experiment: Inhibition of APF activity by recombinant growth factors, low molecular weight urine fractions, 3H-thymidine incorporation
Assay type: cell-based
Details: simultaneous exposure to recombinant growth factor and <3 kDa urine fraction, 48 hours; HB-EGF 0-100 ng/ml (effect evident at 10 ng/ml), EGF 0-100 ng/ml, IGF-1 0-300 pg/ml; FIGS. 6A-6C
Experimental: Primary normal adult human bladder epithelial (HBE) cells were cultured by the method described above in Part II. On the third day of incubation, cell medium was replaced by serum free MEM containing the less than 3 kDa fraction (i.e, containing the APF) of urine specimens from IC patients or controls (i.e., that part containing the anti-proliferative factor or APF described in related application Ser. No. 08/944,202), or HPLC-purified APF or its mock control along with varying concentrations of recombinant HB-EGF (0-100 ng/ml), EGF (0-100 ng/ml), or IGF-1 (0-300 pg/ml) [all from R & D Systems, Minneapolis, Minn.] diluted in phosphate buffered saline (1:1:1). Urine was prepared by the method described above in Part II and HPLC purified APF was prepared as described above. Following an additional 48 hours of incubation at 37 degrees C. in a 5% CO2 atmosphere, cell proliferation was assessed by ^3H-thymidine incorporation according to the published methods^38.
Normal human bladder epithelial cells were exposed simultaneously to recombinant human growth factors (HB-EGF, EGF, or IGF1) and low molecular weight fractions from IC patients or control urine specimens. Cell proliferation was determined 48 hours later by 3H-thymidine incorporation (FIGS. 6A-6C). Bar values indicate the mean of 5-8 determinations. Vertical lines indicate the standard error of the mean.

Row | Substance | inhibition of APF antiproliferative activity
1 | IGF1: recombinant insulin-like growth factor 1 from R & D Systems | unable to completely inhibit APF activity
2 | epidermal growth factor (NSDSECPLSHDGYCLHDGVCMYIEALDKYACNCVVGYIGERCQYRDLKWWELR; UniProt P01133 971-1023, looked up) [EGF, recombinant epidermal growth factor from R & D Systems] | unable to completely inhibit APF activity
